Reference: PubChem BioAssay (NCI)
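These data come from cells grown in 96-well plates and exposed to compound for 48 hours at five concentrations. TGI: total growth inhibition.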

Experiments:
Assay in all cases: NCI tumour cell line growth inhibition, 48 h
SW-620 colon = tested on: SW-620 colon
RXF 393 renal = tested on: RXF 393 renal
LOX IMVI melanoma = tested on: LOX IMVI melanoma
SK-MEL-2 melanoma = tested on: SK-MEL-2 melanoma
HCT-116 colon = tested on: HCT-116 colon
TK-10 renal = tested on: TK-10 renal
NCI-H460 lung = tested on: NCI-H460 lung
NCI-H522 lung = tested on: NCI-H522 lung
U251 CNS = tested on: U251 CNS
MDA-N = tested on: MDA-N
NCI/ADR-RES ovarian = tested on: NCI/ADR-RES ovarian

SMILES: CC(=O)NC(Cc1ccc(OP(=O)(OCc2ccc([N+](=O)[O-])o2)N(C)CCCCCl)cc1)C(=O)NC(C)c1ccc(OCC2CCCCC2)c(C(N)=O)c1 (centres undefined)
- TGI (SW-620 colon): 14.2 µM
- TGI (RXF 393 renal): 5.68 µM
- TGI (LOX IMVI melanoma): 3.77 µM
- TGI (SK-MEL-2 melanoma): 9.2 µM
- TGI (HCT-116 colon): 5.3 µM
- TGI (TK-10 renal): 32 µM
- TGI (NCI-H460 lung): 15.2 µM
- TGI (NCI-H522 lung): 12 µM
- TGI (U251 CNS): 6.49 µM
- TGI (MDA-N): 5.22 µM
- TGI (NCI/ADR-RES ovarian): > 100 µM

SMILES: Cn1c(=O)c2c(nc(Nc3ccc(Cl)cc3)n3c(=O)n(-c4ccccc4)c(=O)n23)n(C)c1=O
- TGI (SW-620 colon): > 100 µM
- TGI (RXF 393 renal): > 100 µM
- TGI (LOX IMVI melanoma): > 100 µM
- TGI (SK-MEL-2 melanoma): > 100 µM
- TGI (HCT-116 colon): > 100 µM
- TGI (TK-10 renal): > 100 µM
- TGI (NCI-H460 lung): > 100 µM
- TGI (NCI-H522 lung): > 100 µM
- TGI (U251 CNS): > 100 µM
- TGI (MDA-N): > 100 µM
- TGI (NCI/ADR-RES ovarian): > 100 µM

SMILES: Cc1nc2ccccc2n1Cc1nnc(N)o1
- TGI (SW-620 colon): > 100 µM
- TGI (RXF 393 renal): > 100 µM
- TGI (LOX IMVI melanoma): > 100 µM
- TGI (SK-MEL-2 melanoma): > 100 µM
- TGI (HCT-116 colon): > 100 µM
- TGI (TK-10 renal): > 100 µM
- TGI (NCI-H460 lung): > 100 µM
- TGI (NCI-H522 lung): > 100 µM
- TGI (U251 CNS): > 100 µM
- TGI (MDA-N): > 100 µM
- TGI (NCI/ADR-RES ovarian): > 100 µM

SMILES: Oc1ccc(O)c(CNc2ccccc2)c1
- TGI (SW-620 colon): > 100 µM
- TGI (RXF 393 renal): 19.5 µM
- TGI (LOX IMVI melanoma): 28.1 µM
- TGI (SK-MEL-2 melanoma): 82.2 µM
- TGI (HCT-116 colon): 23.9 µM
- TGI (TK-10 renal): 39.1 µM
- TGI (NCI-H460 lung): 47 µM
- TGI (NCI-H522 lung): 6.65 µM
- TGI (U251 CNS): 44.2 µM
- TGI (MDA-N): 16.6 µM
- TGI (NCI/ADR-RES ovarian): > 100 µM

SMILES: CC(=O)Oc1ccc(/C=C/C(=O)O[C@H]2CCCC[C@@H]2OC(=O)/C=C/c2ccc(OC(C)=O)c(OC(C)=O)c2)cc1OC(C)=O
- TGI (SW-620 colon): 10.6 µM
- TGI (RXF 393 renal): 27.7 µM
- TGI (LOX IMVI melanoma): 15.4 µM
- TGI (SK-MEL-2 melanoma): 53.1 µM
- TGI (HCT-116 colon): 20.3 µM
- TGI (TK-10 renal): 63.2 µM
- TGI (NCI-H460 lung): > 100 µM
- TGI (NCI-H522 lung): 22.3 µM
- TGI (U251 CNS): > 100 µM
- TGI (MDA-N): 27.5 µM
- TGI (NCI/ADR-RES ovarian): > 100 µM

SMILES: CC(=O)O[C@H]1C[C@H]2C(=S)Nc3ccccc3C(=S)N2C1
- TGI (SW-620 colon): > 100 µM
- TGI (RXF 393 renal): > 100 µM
- TGI (LOX IMVI melanoma): > 100 µM
- TGI (SK-MEL-2 melanoma): > 100 µM
- TGI (HCT-116 colon): > 100 µM
- TGI (TK-10 renal): > 100 µM
- TGI (NCI-H460 lung): > 100 µM
- TGI (NCI-H522 lung): > 100 µM
- TGI (U251 CNS): > 100 µM
- TGI (MDA-N): > 100 µM
- TGI (NCI/ADR-RES ovarian): > 100 µM

SMILES: CC(=O)N1c2ccccc2C(C)C1c1[nH]c2ccccc2c1C (centres undefined)
- TGI (SW-620 colon): > 100 µM
- TGI (RXF 393 renal): 28.4 µM
- TGI (LOX IMVI melanoma): > 100 µM
- TGI (SK-MEL-2 melanoma): 40.2 µM
- TGI (HCT-116 colon): 41.6 µM
- TGI (TK-10 renal): 76.1 µM
- TGI (NCI-H460 lung): > 100 µM
- TGI (NCI-H522 lung): 49.2 µM
- TGI (U251 CNS): 51.5 µM
- TGI (MDA-N): 50.6 µM
- TGI (NCI/ADR-RES ovarian): > 100 µM

SMILES: COc1ccc2cc(C(=O)NCCCNC(=O)c3ccc4cc(OC)ccc4c3)ccc2c1
- TGI (SW-620 colon): > 100 µM
- TGI (RXF 393 renal): 39.6 µM
- TGI (LOX IMVI melanoma): > 100 µM
- TGI (SK-MEL-2 melanoma): > 100 µM
- TGI (HCT-116 colon): > 100 µM
- TGI (TK-10 renal): > 100 µM
- TGI (NCI-H460 lung): > 100 µM
- TGI (NCI-H522 lung): > 100 µM
- TGI (U251 CNS): > 85.4 µM
- TGI (MDA-N): > 100 µM
- TGI (NCI/ADR-RES ovarian): > 100 µM

SMILES: C=CCN(c1cc(OC)c2[nH]cc(C)c2c1[N+](=O)[O-])S(C)(=O)=O
- TGI (SW-620 colon): > 100 µM
- TGI (RXF 393 renal): > 100 µM
- TGI (LOX IMVI melanoma): > 100 µM
- TGI (SK-MEL-2 melanoma): > 100 µM
- TGI (HCT-116 colon): > 100 µM
- TGI (TK-10 renal): > 100 µM
- TGI (NCI-H460 lung): > 100 µM
- TGI (NCI-H522 lung): > 100 µM
- TGI (U251 CNS): > 100 µM
- TGI (MDA-N): > 100 µM
- TGI (NCI/ADR-RES ovarian): > 100 µM
